Assay results: patent US20240316043A1, “BROMODOMAIN INHIBITORS FOR CANCER THERAPY” (University of Tennessee Research Foundation, priority 2023, published 2024)
Entries after “also recorded” stand apart in the source; their conditions may differ.

Experiments:
[1] = test system: 12 primary human cell based systems; conditions: cited from earlier work
GBM tumors = conditions: intracranial GBM animal model; cited from earlier work
LN229 GBM cells = experiment: γH2Ax immunostaining after TMZ; format: cell-based; parameters: dose or concentration left out as unconfirmed; conditions: 24 hrs, FIG. 11
Description: After treatment for 24 hrs, cells were fixed and immunostained for gH2Ax. Analysis of immunostaining was performed on a laser confocal microscope.
As TMZ is DNA damaging agent, we tested the ability of various bromodomain inhibitors to enhance TMZ-induced DNA damage as evidence by immunostaining of GBM cells with γH2Ax and examination of the staining on a confocal microscope. γH2AX is the phosphorylated version of the histone variant H2Ax and is a highly specific and sensitive marker for monitoring DNA damage initiation and resolution. […] Similar results were obtained with MT330 GBM cells.

BRG1/BRM = conditions: cited from earlier work
MT330 cells = experiment: γH2Ax immunostaining after bleomycin; format: cell-based; conditions: FIG. 8
Description: After 1 hr of bleomycin treatment cell death, cells were fixed and immunostained for γH2Ax. Analysis of immunostaining was performed on at least 1,000 cells on the Lionheart FX imaging system.
Bleomycin is a chemotherapeutic drug that is used to treat various cancers. […] Thus, the ability of bleomycin to induce DNA damage as evidence by immunostaining of MT330 cells and LN229 with γH2Ax was tested. Quantification of cell staining was determined on the Lionheart FX imaging station.

MT330 GBM cells [2] = experiment: Cell death ELISA in MT330 GBM cells; format: cell-based; conditions: for enhancement of TMZ-induced cell death: 10 mM inhibitor in combination with 200 mM of TMZ
Description: Control cells were treated with vehicle (DMSO). Cell death was determined at 72 hr after treatment by a cell death ELISA that quantifies histone-complexed DNA fragments. […]
Parental and BRG1 knockout MT330 cells were treated with bleomycin (0.01 μM) and bromodomain inhibitors […]. After 72 hr, cell death was determined by cell death ELISA.
The biological activity of bromodomain inhibitors was assessed for the ability to enhance TMZ-induced cell death. In brief, MT330 cells were treated with […] of bromodomain inhibitors alone, or in combination with […] of TMZ for 72 hrs, and GBM cell death was determined by a commercial ELISA.

[3] = test system: TMZ-sensitive GBM cells and TMZ-resistant GBM cells; conditions: cited from earlier work
[4] = test system: BRG1 knockout MT330 cells; experiment: Cell death ELISA in BRG1 knockout MT330 cells; format: cell-based; conditions: 72 hr
Description: (§1) BRG1 and BRM knockout MT330 cells were treated with TMZ (500 μM) and bromodomain inhibitors (10 μM). After 72 hr, cell death was determined by a cell death ELISA.
Parental and BRG1 knockout MT330 cells were treated with bleomycin (0.01 μM) and bromodomain inhibitors (10 μM). After 72 hr, cell death was determined by cell death ELISA.
(§2) To further characterize the specificity of YH-IV-255 for the BRG1 bromodomain, GBM cell lines were generated with either BRG1 or BRM knocked out by CRISPR/Cas9 gene editing.^14 These cells were isolated by puromycin selection and the knockout of the either subunit was validated by immunoblotting.

BRM knockout MT330 cells = experiment: Cell death ELISA in BRM knockout MT330 cells; format: cell-based; conditions: TMZ (500 μM) and bromodomain inhibitors (10 μM), 72 hr, FIG. 7
Description: as §1, §2

MT330 GBM cells [5] = experiment: Cell death ELISA in MT330 GBM cells; format: cell-based; conditions: TMZ (500 μM) and bromodomain inhibitors (10 μM), 24 hr, FIG. 6A
[6] = test system: intracranial GBM xenografts (MT330 cells); experiment: Orthotopic GBM model, MT330 cells injected into brains of NSG mice; format: in vivo; conditions: combination with TMZ (10 mg/Kg), IV-255 or IV-275 (20 mg/Kg) IP 3 times per week, 3-4 weeks after treatment, versus either agent alone, FIG. 10
Description: MT330 cells (10^6) were injected into the brains of NSG female mice. After tumors were identified by BLI (˜10 days post-injection), mice were IP injected with TMZ (60 mg/Kg body weight) or IV-129 (10 mg/Kg) alone or in combination 3 times per week (5 mice per group) for 2 weeks. […] FIG. 5C Kaplan-Meier analysis of the survival data (5 mice/group) of the brain tumor-bearing mice was performed.
MT330 cells […] were injected into the brains of NSG female mice. After tumors were identified by BLI (˜10 days post-injection), mice were IP injected with TMZ (10 mg/Kg body weight), IV-255 or IV-275 (20 mg/Kg) alone or in combination 3 times per week (5 mice/group).
Luciferase-expressing MT330 cells were injected into the brains of immunocompromised NSG mice. Once tumors were identified by bioluminescence imaging (BLI) at ˜10 days after tumor cell injection, mice were subjected to intraperitoneal injection of TMZ or YH-IV-129 alone, or in combination. At 20 days after initiation of treatment, live animal imaging was performed on an IVIS Lumina instrument. […] The mean survival of control mice was 27 days after cell injection (FIG. 5C).
Luciferase-expressing MT330 cells were injected into the brains of immunocompromised NSG mice. Once tumors were identified by bioluminescence imaging (BLI) at ˜10 days after tumor cell injection, mice were subjected to intraperitoneal injection of TMZ or YH-IV-255 or YH-IV-275 alone, or in combination. […] This is compelling preliminary evidence that these two new compounds have potent anticancer activity in intracranial GBM xenografts when combined with standard-of-care TMZ chemotherapy and that these drugs cross the blood-brain barrier.

BRG1 bromodomain = target: T1, BRG1 bromodomain (Homo sapiens, UniProt P51532); experiment: Cellular thermal shift assay (CETSA), BRG1 bromodomain construct in MT330 cells; format: binding; parameters: binding to the BRG1 BRD: dose or concentration left out as unconfirmed; conditions: for selectivity BRG1 versus BRM bromodomain: conclusion from CETSA and knockout cells
T1 construct: expressed in transfected cells; host or cells: MT330 glioblastoma cells
T1 sequence (P51532 1453-1564 limits assumed): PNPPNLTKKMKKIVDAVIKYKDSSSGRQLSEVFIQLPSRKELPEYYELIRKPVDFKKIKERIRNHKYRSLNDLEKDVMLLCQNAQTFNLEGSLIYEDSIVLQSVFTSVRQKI
Description: After heating over a temperature range from 44.5° C. to 55.6° C. for 5 min, the cells were lysed, placed on ice at 4° C. and then immunoblotted for BRG1 or actin.
(§3) For the CETSA, MT330 cells expressing the BRM (FIG. 6B), or BRG1 (FIG. 6C) the BRD construct were treated with bromodomain inhibitors […] and immunoblotted as indicated.
(§4) After heating over a temperature range from 44.5° C. to 55.6° C. for 5 min, MT330 cells were lysed and then immunoblotted for BRG1 or BRM.

BRM bromodomain = target: T2, BRM bromodomain (Homo sapiens, UniProt P51531); experiment: Cellular thermal shift assay (CETSA), BRM bromodomain construct in MT330 cells; format: binding; parameters: binding to the BRM BRD: dose or concentration left out as unconfirmed; conditions: CETSA, FIG. 6B
T2 construct: expressed in transfected cells; host or cells: MT330 glioblastoma cells
T2 sequence (P51531 1378-1506 limits assumed): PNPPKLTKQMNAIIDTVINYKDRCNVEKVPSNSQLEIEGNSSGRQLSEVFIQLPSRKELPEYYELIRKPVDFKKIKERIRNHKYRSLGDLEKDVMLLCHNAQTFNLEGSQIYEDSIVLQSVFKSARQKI
Description: as §3, §4

Structure (SMILES): O=C(/C=C/N1C[C@H]2C[C@@H]1CN2c1ccccn1)c1ccccc1O [PFI-3]
- inhibitory effects against a range of cellular endpoints [1]: inhibitory effects were not observed
- survival of animals bearing GBM tumors treated with TMZ (GBM tumors): increase in survival
- γH2Ax staining, inhibitor with TMZ (LN229 GBM cells): marked increase in γH2Ax staining
- Kd (BRG1/BRM): < 100 nM
- γH2Ax staining, PFI-3 alone (MT330 cells; PFI-3 (5 μM) alone): no effect on γH2Ax staining
- γH2Ax staining, PFI-3 pretreatment followed by bleomycin (MT330 cells; pretreated for 1 hr with PFI-3 (5 μM) followed by bleomycin (0.5 and 2 μM)): increased number of both γH2Ax positive cells and signal intensity of staining; also recorded: sensitized GBM cells to DNA damage induced by Bleomycin
- enhancement of TMZ-induced cell death (MT330 GBM cells [2]; 72 hrs, FIG. 1): markedly increased the sensitivity of GBM cells to TMZ-induced cell death
- cell death, inhibitor alone (MT330 GBM cells [2]; 10 mM of bromodomain inhibitors alone, 72 hrs, FIG. 1): did not induce cell death
- enhancement of antiproliferation activity and cell death-inducing effects of TMZ [3]: enhanced the antiproliferation activity and cell death-inducing effects of temozolomide

Structure (SMILES): COc1ccc(N2C[C@H]3C[C@@H]2CN3C(=O)Nc2ccc(F)c(F)c2)cc1 [YH-IV-255, (1R,4R)-N-(3,4-difluorophenyl)-5-(4-methoxyphenyl)-2,5-diazabicyclo[2.2.1]heptane-2-carboxamide]
- enhancement of TMZ-induced cell death ([4]; TMZ (500 μM) and bromodomain inhibitors (10 μM), FIG. 7): no such activity in BRG1 knockout GBM cells; also recorded: not BRG1 knockout cells
- enhancement of bleomycin-induced cell death ([4]; bleomycin (0.01 μM) and bromodomain inhibitors (10 μM), FIG. 9): ablated in BRG1 knockout MT330 cells
- enhancement of TMZ-induced cell death (BRM knockout MT330 cells): very similar activity in enhancing the cell death inducing activity in BRM knockout GBM cells; also recorded: sensitized BRM knockout GBM cells
- TMZ sensitivity (TMZ-induced cell death) (MT330 GBM cells [5]): similarly increase the TMZ sensitivity of GBM cells
- TMZ sensitivity (TMZ-induced cell death) (MT330 GBM cells [5]; listed as IV-255): potent sensitizer to TMZ-induced cell death
- γH2Ax staining, inhibitor with TMZ (LN229 GBM cells): marked increase in γH2Ax staining
- enhancement of TMZ-induced cell death (MT330 GBM cells [2]; 72 hrs, FIG. 1): better efficacy than PFI-3; also recorded: somewhat more bioactive than YH-IV-129; also recorded: markedly enhanced TMZ sensitivity of GBM cells in vitro as compared to PFI-3
- enhancement of bleomycin-induced cell death (MT330 GBM cells [2]; bleomycin (0.01 μM) and bromodomain inhibitors (10 μM), 72 hr, FIG. 9): sensitized GBM cells to bleomycin-induced cell death
- cell death, inhibitor alone (MT330 GBM cells [2]; bromodomain inhibitors (10 μM) alone, 72 hr, FIG. 9): none of the bromodomain inhibitors (YH-IV-129, YH-IV-255 and YH-IV-275) alone had any death inducing activity
- bioluminescent signal in the brain [6]: decreased the bioluminescent signal in the brain
- binding to the BRG1 BRD (BRG1 bromodomain; CETSA, FIG. 6C): bind equivalently to the BRG1 BRD
- selectivity BRG1 versus BRM bromodomain (BRG1 bromodomain): selective BRG1 bromodomain inhibitor; also recorded: selective inhibitor the BRG-1 bromodomain
- selectivity BRG1 versus BRM bromodomain (BRG1 bromodomain; listed as IV-255): binds selectively to the BRG1 BRD
- binding to the BRM BRD (BRM bromodomain): does not bind
